# Experimental data from publication PMC5084681, “Ephenidine: A new psychoactive agent with ketamine-like NMDA receptor antagonist properties” (Neuropharmacology, 2017).
# “And” between values parts separate entries of the source, which are not always exact repeats. Identical values can stand only once. “Also recorded” adds a separate entry of the source. Like-named read-outs stand apart in the source and are kept apart here.
# Key:
# [1] = system: NMDA receptor-mediated fEPSP; assay: Extracellular recording of NMDA receptor-mediated fEPSP in CA1 of hippocampal slices; type: cell-based, rat; settings: for time-course of reduction of NMDA receptor mediated fEPSP: 1 and 10 μM; for inhibition of NMDA receptor mediated fEPSP: after 4 h superfusion
# Protocol: (§1) Male Wistar and Sprague-Dawley rats (Crl:Wi; Charles River, UK) aged 3–10 weeks old were killed by dislocation of cervical vertebrae according to Schedule 1 of the United Kingdom (Scientific Procedures) Act of 1986. Brains were rapidly removed and put in artificial cerebrospinal fluid (aCSF) consisting of 124 mM NaCl, 26 mM NaHCO3, 3 mM KCl, 1.4 mM NaH2PO4, 1 mM MgSO4, 2 mM CaCl2, and 10 mM D-glucose and continuously oxygenated with 95% O2 and 5% CO2. Parasagittal brain slices, 400 μm thick, of the hippocampus were removed, stored and placed in a submerged recording chamber at 28–30 °C.
# (§2) Recordings of extracellular synaptic activity were made ([Ceolin et al., 2012], [Volianskis et al., 2013]) using a bipolar electrode to deliver stimuli (0.03 Hz) to the Schaffer collateral pathway to evoke field excitatory postsynaptic potentials (fEPSPs) recorded from a glass microelectrode (3–6 MΩ) in the stratum radiatum of area CA1. […] In initial experiments after 30 min of stable control responses, the remaining response was challenged with 30 μM ephenidine. Using this protocol for isolating NMDA-fEPSPs (see Fig. 2A), 1 and 10 μM ephenidine or 1 and 10 μM D-2-amino-5-phosphonopentanoic acid (D-AP5) were added to the perfusate for up to 4 h while recording the amplitude and area of the NMDA-fEPSP on-line using WinLTP ([Anderson and Collingridge, 2007]). Single exponential curves were fitted to show likely half-times and minimum plateau responses achieved with each concentration used. For selectivity experiments, 50 μM picrotoxin and 1 μM CGP 55845 were added to the solution from the beginning of the experiment and 50 μM ephenidine was superfused for 60 min in the absence of other pharmacological agent.
# [2] = system: NMDA receptor-mediated EPSCs; assay: Whole-cell patch clamp of NMDA receptor-mediated EPSCs in CA1 pyramidal cells; type: cell-based, rat
# Protocol: as §1
# Whole-cell patch clamp recordings of excitatory postsynaptic currents (EPSCs) were made from CA1 pyramidal cells under visual guidance with IR-DIC optics as described by [Park et al. (2016)]. The recording chamber was maintained at 32 °C. Borosilicate glass pipettes were used with a resistance of 3–5 MΩ. The internal solution comprised (mM): 8 NaCl, 130 CsMeSO3, 10 HEPES, 0.5 EGTA, 4 Mg-ATP, 0.3 Na3-GTP, 5 QX-314 and 0.1 spermine. The pH was adjusted to 7.2–7.3 with CsOH and osmolarity to 285–290 mOsm. Peak amplitude of EPSCs was measured while varying holding voltage from −60 mV to +60 mV and stimulating the Schaffer collateral pathway at a frequency of 0.1 Hz at constant intensity. Five consecutive responses obtained at each holding potential were averaged to plot the current-voltage relationship. Currents through NMDA receptors were pharmacologically isolated using 10 μM NBQX, 50 μM picrotoxin and 20 μM (+)-bicuculline. In initial experiments, MgSO4 was omitted from the bath solution for at least 30 min before patching and replaced with 30 μM ephenidine, 10 μM ketamine, 30 μM D-AP5 or 2 mM MgSO4. Rectification indices were calculated from the EPSC values at +40 mV and −40 mV. In subsequent experiments, slices were incubated in aCSF with no added MgSO4, before transferring to the recording chamber to obtain control current-voltage plots from NMDA-EPSCs as above before adding 2 mM MgSO4 or 30 μM ephenidine for 30 min and repeating the current-voltage protocol. Representative sample traces are shown from typical experiments, and stimulus artifacts blanked for clarity. Data were normalized to the baseline preceding drug application, and are presented as mean ± SEM and compared using one-way ANOVA and level of significance is denoted as *** for p values < 0.001.
# [3] = system: AMPA receptor-mediated fEPSP; assay: Extracellular recording of AMPA receptor-mediated fEPSP in CA1 of hippocampal slices; type: cell-based, rat
# Protocol: as §1
# as §2, with “Single exponential curves were fitted to show likely half-times and minimum plateau responses achieved with each concentration used. For selectivity experiments, 50 μM picrotoxin and 1 μM CGP 55845 were added to the solution from the beginning of the experiment and 50 μM ephenidine was superfused for 60 min in the absence of other pharmacological agent.” left out
# [4] = target: MK-801 binding site of the NMDA receptor; assay: (+)-[3H]-MK-801 displacement binding in whole rat brain homogenate
# Protocol: Termination of reaction was performed via vacuum filtration using a 24 well cell harvester (Brandel, Gaithersburg, MD) over presoaked GF/B glass fiber filters (Brandel, Gaithersburg, MD). Filters were washed with room temperature assay buffer (3 × 5 mL). Trapped tritium was measured via liquid scintillation counting, using a Beckman LS 6500 multipurpose scintillation counter (BeckmanCoulter, USA) at 57% efficiency. IC50 values were determined in Graphpad Prism 5.0 using non-linear regression with log-concentration plotted against percent specific binding. […] Ki values were calculated using the equation of [Cheng and Prusoff (1973)]. […] Protein concentration was determined via the Bradford method using Coomassie protein assay reagent (Sigma, USA) with rat albumin (Sigma, USA) as standard. Experiments were performed in duplicate and repeated three or four times.
# [5] = target: dopamine transporter (DAT) (Homo sapiens, UniProt Q01959); assay: NIMH PDSP receptor binding assay, dopamine transporter
# Sequence of dopamine transporter (DAT) (Q01959 whole entry, species assumed): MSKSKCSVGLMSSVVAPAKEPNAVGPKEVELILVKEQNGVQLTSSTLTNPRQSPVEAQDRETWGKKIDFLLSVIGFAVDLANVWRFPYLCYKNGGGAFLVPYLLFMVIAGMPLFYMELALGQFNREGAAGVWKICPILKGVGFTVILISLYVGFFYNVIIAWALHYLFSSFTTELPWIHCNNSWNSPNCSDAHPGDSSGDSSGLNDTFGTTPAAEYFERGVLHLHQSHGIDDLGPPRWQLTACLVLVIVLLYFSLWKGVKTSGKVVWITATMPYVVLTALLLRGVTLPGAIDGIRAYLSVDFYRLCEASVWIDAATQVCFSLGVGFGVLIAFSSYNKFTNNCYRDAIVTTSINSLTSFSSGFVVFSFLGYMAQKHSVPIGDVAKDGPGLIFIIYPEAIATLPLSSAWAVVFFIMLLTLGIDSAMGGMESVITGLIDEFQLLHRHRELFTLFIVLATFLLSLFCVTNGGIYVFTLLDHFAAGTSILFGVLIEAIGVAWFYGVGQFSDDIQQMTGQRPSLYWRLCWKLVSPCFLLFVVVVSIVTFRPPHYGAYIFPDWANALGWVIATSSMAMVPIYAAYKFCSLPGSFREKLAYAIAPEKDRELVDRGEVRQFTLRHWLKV
# Protocol: (§3) Displacement by ephenidine in binding assays of a further 45 CNS receptors was performed through the National Institute of Mental Health Psychoactive Drug Screening Program (NIMH PDSP). Briefly ephenidine, dissolved in DMSO, was subject to a primary screen at a concentration of 10 μM (see Suppl. 2 for radioligands used). […] Additional experimental details are available in the NIMH PDSP protocol book ([Roth et al., 2013]).
# [6] = target: noradrenaline transporter (NET) (Homo sapiens, UniProt P23975); assay: NIMH PDSP receptor binding assay, noradrenaline transporter
# Sequence of noradrenaline transporter (NET) (P23975 whole entry): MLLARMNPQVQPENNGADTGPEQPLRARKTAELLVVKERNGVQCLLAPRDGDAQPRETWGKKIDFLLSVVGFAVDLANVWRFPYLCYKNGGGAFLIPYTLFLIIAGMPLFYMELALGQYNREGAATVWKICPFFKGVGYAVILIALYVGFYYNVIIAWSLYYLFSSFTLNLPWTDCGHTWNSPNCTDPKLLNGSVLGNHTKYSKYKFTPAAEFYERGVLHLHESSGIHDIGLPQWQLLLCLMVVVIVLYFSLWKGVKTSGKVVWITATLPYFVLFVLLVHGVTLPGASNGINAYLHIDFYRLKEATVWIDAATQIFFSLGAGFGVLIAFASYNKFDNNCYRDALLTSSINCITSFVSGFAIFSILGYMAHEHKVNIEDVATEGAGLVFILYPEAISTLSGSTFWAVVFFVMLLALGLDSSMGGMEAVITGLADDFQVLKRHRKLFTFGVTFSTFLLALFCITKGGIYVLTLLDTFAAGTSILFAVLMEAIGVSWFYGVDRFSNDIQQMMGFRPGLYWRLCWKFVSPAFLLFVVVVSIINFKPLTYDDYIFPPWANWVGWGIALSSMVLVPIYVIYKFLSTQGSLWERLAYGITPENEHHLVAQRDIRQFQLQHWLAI
# Protocol: as §3
# sigma 1 binding site = sigma 1 binding site (Homo sapiens, UniProt Q99720); assay: NIMH PDSP receptor binding assay, sigma 1; settings: affinity for sigma 1 binding site, NIMH PDSP secondary assay
# Sequence of sigma 1 binding site (Q99720 whole entry): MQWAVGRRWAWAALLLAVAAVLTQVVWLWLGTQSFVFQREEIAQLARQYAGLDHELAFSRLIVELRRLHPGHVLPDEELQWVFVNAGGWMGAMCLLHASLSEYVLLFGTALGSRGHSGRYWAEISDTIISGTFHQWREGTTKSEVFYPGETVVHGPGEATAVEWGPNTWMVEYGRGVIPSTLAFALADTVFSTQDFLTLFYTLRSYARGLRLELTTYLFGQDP
# Protocol: as §3
# sigma 2 binding site = sigma 2 binding site (Homo sapiens, UniProt Q5BJF2); assay: NIMH PDSP receptor binding assay, sigma 2
# Sequence of sigma 2 binding site (Q5BJF2 whole entry): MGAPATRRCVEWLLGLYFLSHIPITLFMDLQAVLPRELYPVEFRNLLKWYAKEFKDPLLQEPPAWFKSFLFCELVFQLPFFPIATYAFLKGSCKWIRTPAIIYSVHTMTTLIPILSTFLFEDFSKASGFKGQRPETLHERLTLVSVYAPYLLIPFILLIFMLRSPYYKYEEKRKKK
# Protocol: as §3
# [7] = system: remaining 41 CNS receptors (Supplement 2); assay: NIMH PDSP primary binding screen at 10 μM, remaining 41 receptors
# Protocol: as §3
# [8] = system: long-term potentiation (LTP) in CA1; assay: LTP of fEPSPs in Schaffer collateral-CA1 pathway induced by theta burst stimulation; type: cell-based, rat
# Protocol: as §1
# To study the effect of ephenidine on long-term potentiation (LTP), slices were incubated in control aCSF or aCSF containing 10 μM ephenidine for at least 2 h before transferring to the recording chamber, fEPSPs were recorded as above without addition of other agents. After obtaining stable responses, a theta burst stimulation (TBS; [Park et al., 2016]) was applied to the Schaffer collateral pathway and the amplitude of the fEPSP in CA1 monitored for at least a further 40 min.
# PCP binding site = system: PCP binding site; parameters: method as in Thurkauf et al., 1989; settings: ref Thurkauf et al., 1989; cited from earlier work
# [9] = target: MK-801 binding site of the NMDA receptor; parameters: method as in Wallach et al., 2016; settings: same assay, ref Wallach et al., 2016, cited from earlier work; for Ki: read-out: Ki, (+)-[3H]-MK-801 displacement
compound,measurement,setting,value
"N[C@H](CCCP(=O)(O)O)C(=O)O [D-AP5, D-2-amino-5-phosphonopentanoic acid, reference compound]",time-course of reduction of NMDA receptor mediated fEPSP,[1],rapid reduction
same,rectification index (RI; +40 mV/−40 mV),"[2]; 30 μM D-AP5, no added Mg2+",0.8 ± 0.01
same,effect on NMDA-EPSC current-voltage relationship,"[2]; 30 μM, no added Mg2+",reduced both inward and outward current
"NS(=O)(=O)c1cccc2c1c([N+](=O)[O-])cc1nc(O)c(O)nc12 [NBQX, reference compound]",effect on AMPA receptor mediated fEPSP,[3]; 3 μM,rapid block of the remaining fEPSP
"CCNC(Cc1ccccc1)c1ccccc1 (stereo not shown) [ephenidine, N-Ethyl-1,2-diphenylethanamine]",IC50,[4]; 1 nM (+)-[3H]-MK-801,104 ± 5.9 nM
same,Ki,"[4]; 1 nM (+)-[3H]-MK-801, Cheng-Prusoff",66 nM and 66.4 nM
same,Ki,[5],379 nM
same,Ki,[6],841 nM
same,Ki,sigma 1 binding site,629 nM and 628 nM
same,Ki,sigma 2 binding site,721 nM
same,displacement in primary screen,[7],less than 50%
same,inhibition of NMDA receptor mediated fEPSP,[1]; 1 μM,25%
same,inhibition of NMDA receptor mediated fEPSP,[1]; 10 μM,near maximal inhibition; also recorded: near maximal effect
same,effect on NMDA receptor mediated fEPSP,[1]; 30 μM,slowly reduced
same,effect on AMPA receptor mediated fEPSP (peak amplitude),"[3]; 50 μM, 1 h superfusion",lack of effect; also recorded: did not affect; also recorded: no significant reduction
same,block of NMDA receptor-mediated EPSCs,[2]; 10 μM,blocked NMDA receptor-mediated EPSCs in a highly voltage-dependent manner
same,rectification index (RI; +40 mV/−40 mV),"[2]; 30 μM ephenidine, no added Mg2+",3.6 ± 0.3
same,effect on NMDA-EPSC current-voltage relationship,"[2]; 30 μM, no added Mg2+",reduction of inward current at negative holding potentials
same,mean NMDA-EPSC current at +40 mV,"[2]; 30 μM, no added Mg2+, holding potential +40 mV",133 ± 12 pA
same,mean NMDA-EPSC current at −40 mV,"[2]; 30 μM, no added Mg2+, holding potential −40 mV",−48 ± 8 pA
same,effect on induction of LTP,[8]; 10 μM,blocked the induction of long term potentiation (LTP); also recorded: completely blocked the induction of LTP
same,effect on induction of LTP,[8]; 30 μM,completely blocked the induction of LTP
same,affinity for the PCP binding site,PCP binding site,257 nM
CNC1(c2ccccc2Cl)CCCCC1=O (stereo not shown) [ketamine],time-course of reduction of NMDA receptor mediated fEPSP,[1],slower reduction
same,rectification index (RI; +40 mV/−40 mV),"[2]; 10 μM, no added Mg2+",2.0 ± 0.2
same,Ki,[9]; listed as Ketamine,324 ± 19.2 nM
same,IC50,"[9]; read-out: IC50, (+)-[3H]-MK-801 displacement",508 ± 30.1 nM
same,Ki,[9],324 ± 19 nM
